What was measured:
Details in all cases: 72 h
[1] = system: Vero E6; test: drug sensitivity score (DSS) for viability; higher = more toxic; extreme values may be limits of the assay
[2] = system: Caco-2; test: as above
[3] = system: HepG2; test: as above
[4] = system: Calu-3; test: as above
[5] = system: U2OS; test: as above
[6] = system: Vero E6; test: cell viability relative to DMSO; higher = less toxic
[7] = system: Caco-2; test: as above
[8] = system: HepG2; test: as above
[9] = system: Calu-3; test: as above
[10] = system: U2OS; test: as above
[11] = system: Vero E6; test: relative viability EC50 (midpoint between 100% and the lowest measured viability); higher = less toxic
[12] = system: Caco-2; test: as above
[13] = system: HepG2; test: as above
[14] = system: Calu-3; test: as above
[15] = system: U2OS; test: as above

| Compound | drug sensitivity score [1] | drug sensitivity score [2] | drug sensitivity score [3] | drug sensitivity score [4] | drug sensitivity score [5] | cell viability ([6]; 1 nM) | cell viability ([6]; 10 nM) | cell viability ([6]; 100 nM) | cell viability ([6]; 1000 nM) | cell viability ([6]; 10000 nM) | cell viability ([7]; 1 nM) | cell viability ([7]; 10 nM) | cell viability ([7]; 100 nM) | cell viability ([7]; 1000 nM) | cell viability ([7]; 10000 nM) | cell viability ([8]; 1 nM) | cell viability ([8]; 10 nM) | cell viability ([8]; 100 nM) | cell viability ([8]; 1000 nM) | cell viability ([8]; 10000 nM) | cell viability ([9]; 1 nM) | cell viability ([9]; 10 nM) | cell viability ([9]; 100 nM) | cell viability ([9]; 1000 nM) | cell viability ([9]; 10000 nM) | cell viability ([10]; 1 nM) | cell viability ([10]; 10 nM) | cell viability ([10]; 100 nM) | cell viability ([10]; 1000 nM) | cell viability ([10]; 10000 nM) | relative viability EC50 [11] | relative viability EC50 [12] | relative viability EC50 [13] | relative viability EC50 [14] | relative viability EC50 [15] |
| --- | --- | --- | --- | --- | --- | --- | --- | --- | --- | --- | --- | --- | --- | --- | --- | --- | --- | --- | --- | --- | --- | --- | --- | --- | --- | --- | --- | --- | --- | --- | --- | --- | --- | --- | --- |
| CC(C)(C)c1ccc(C(=O)Nc2cn3cc(-n4ccnc4)ccc3n2)cc1 [TC-ASK-10] | 0 | 0.2 | 0.6 | 0 | 0 | 93.2% | 103% | 93.8% | 95.5% | 99.1% | 96.1% | 101% | 99.3% | 109% | 81.8% | 87.1% | 102% | 98.4% | 104% | 77.2% | 97.9% | 95.6% | 105% | 105% | 93.9% | 96.4% | 97.3% | 99.5% | 98.8% | 91.6% | > 10 µM | > 10 µM | > 10 µM | > 10 µM | > 10 µM |
| C[C@H]1C[C@H]2[C@@H]3CCC4=CC(=O)C=C[C@]4(C)[C@@]3(Cl)[C@@H](O)C[C@]2(C)[C@@]1(O)C(=O)CO [beclomethasone] | 0 | 0 | 0 | 0 | 0 | 94.4% | 90.4% | 93.5% | 99.8% | 110% | 108% | 88.6% | 95.2% | 98.4% | 112% | 92.7% | 110% | 96.7% | 106% | 113% | 102% | 97.3% | 103% | 95.3% | 91.5% | 97.5% | 92.9% | 101% | 95.8% | 94% | > 10 µM | > 10 µM | > 10 µM | > 10 µM | > 10 µM |
| N=C(N)NCCC[C@H](N)C(=O)O [L-arginine] | 0 | 0 | 0 | 0 | 0 | 97.2% | 99.2% | 102% | 103% | 102% | 97.6% | 114% | 96.9% | 107% | 98.9% | 95.3% | 96.5% | 95.5% | 96% | 89.4% | 104% | 95.7% | 104% | 99% | 99.3% | 105% | 94.9% | 99.6% | 94.6% | 101% | > 10 µM | > 10 µM | > 10 µM | > 10 µM | > 10 µM |
| CCNC(=O)Nc1ccc(-c2nc3c(c(N4CCOC[C@@H]4C)n2)CCN(C2COC2)C3)cc1 [GDC-0349] | 5.6 | 11.1 | 10.4 | 13.7 | 8.3 | 106% | 105% | 94.2% | 81.2% | 40.3% | 107% | 95.7% | 82.3% | 51.7% | 35% | 114% | 99.8% | 95.9% | 49% | 26.3% | 101% | 100% | 79% | 39.5% | 29.5% | 102% | 98.9% | 94.6% | 66.2% | 21.1% | 1.46 µM | 0.295 µM | 0.6 µM | 0.211 µM | 1.17 µM |
| NC(=O)CN1CC[C@@H](NC(=O)[C@@H]2CCCN2)C1=O [PAOPA] | 0 | 0 | 0 | 0 | 0 | 95.4% | 97.8% | 92.5% | 101% | 104% | 100% | 99.7% | 100% | 134% | 96.7% | 89.1% | 109% | 97% | 100% | 108% | 98.1% | 99.6% | 106% | 94.2% | 106% | 100% | 102% | 102% | 105% | 95.2% | > 10 µM | > 10 µM | > 10 µM | > 10 µM | > 10 µM |
| C[N+](C)(C)CC(=O)O [betaine] | 0 | 0 | 0 | 0 | 0 | 115% | 100% | 104% | 107% | 98.9% | 99.7% | 90% | 93.5% | 96.9% | 87.1% | 96.3% | 89.1% | 108% | 98.6% | 106% | 101% | 95.8% | 106% | 91.4% | 98.7% | 99.5% | 102% | 98.8% | 104% | 96.7% | > 10 µM | > 10 µM | > 10 µM | > 10 µM | > 10 µM |
| O=C(/C=C/c1ccc(CN(CCO)CCc2c[nH]c3ccccc23)cc1)NO [dacinostat] | 24.4 | 25.2 | 28.4 | 21.5 | 22.6 | 108% | 103% | 47.8% | -0.4% | -0.3% | 96.5% | 101% | 38.7% | 0.3% | 0.8% | 104% | 82% | 26.1% | -0.4% | -0.4% | 98.7% | 90.1% | 56.5% | 11.3% | 5.5% | 98.1% | 101% | 66.4% | 1.3% | 0.5% | 0.0966 µM | 0.083 µM | 0.0395 µM | 0.109 µM | 0.131 µM |

Reference: the supplement of paper PMC13380429
